For series [1], the system named is EpiDerm-FT (full thickness living skin model).
Procedure: (§1) Using an analytical method measuring HPR by HPLC, and extraction procedures that yield >95% recovery of HPR from skin homogenates, EpiDerm Enhanced Barrier Function and EpiDerm Full-thickness skin specimens were removed from the Franz cells at the scheduled time, washed and halved as described below, and then homogenized and extracted in acetonitrile supplemented with 4 μg/mL BHT, 0.1% ethanol for quantitation of HPR by HPLC. Receiver medium specimens were collected and processed for HPR analysis by HPLC as described below. Injection volumes were 100 μl for extracts of skin and receiver medium and 50 μl for calibration standards. HPR quantitation was by back calculation to a standard curve constructed from clinical grade HPR received from the NCI. […] For the second permeation study of Retin-A, PD05057 and HPR formulation C5 2005 using enhanced barrier function epidermal models, ATRA in the extracts of treated skin was quantified against an ATRA standard curve and HPR against an HPR standard curve.
(§2) 18 reconstituted EpiDerm-Full Thickness specimens (EFT-306-AFAB-PRF, lot #7024-306-AFAB-PR) and 18 reconstituted EpiDerm Skin Model Enhanced Barrier Function (EPI-606-X-AFAB-PRF, lot #5093ofs) were received in good condition from Mattek Inc via overnight courier. EpiDerm-FT was maintained in culture by specialized medium changes every other day according to the manufacturer's instructions. EpiDerm-606X was stored refrigerated until use. EpiDerm-FT medium was free of phenol red, antibiotic and anti-fungal additives (EFT-300-MM-ASY-AFAB-PRF, lot #110405aab and EPI-100-X), so as to avoid creating artifactual toxicity or proinflammatory response. The particular skin specimens were all reconstituted with normal human epidermal keratinocytes and, for EpiDerm-FT, fibroblasts as well from a single donor foreskin.
(§3) Three topical products were tested in the in vitro skin model: Retin-A 0.1% (lot #5BM258, expiry 02/07), HPR in topical formulation C5 and another HPR formulation (PD05057). These drugs were tested blindly using the following codes: “A” for Retin-A, “B” for the C5 formulation of HPR, and “D” for the HPR formulation PD05057. Receiver medium was made by mixing pre-warmed, 37° C. EFT-306 medium 5:1 with human serum albumin (Sigma A6909, lot #055K8904, then lot #095K8906) to its physiological concentration of 50 mg/mL. To prevent oxidation of HPR during the collection period, BHT was added to the receiver medium to a final concentration of 10 μg/mL from a 40 mg/mL solution of BHT-NF (Spectrum Chemicals, B1196, lot #UM0659) in Ethanol USP (NDC 11098-503-05, lot #121310). Each sterile amber Franz cells was pre-warmed to 37° C. using a circulating water bath, the bottom chamber filled completely with receiver medium (˜10 ml), and then reconstituted skin specimens were removed from the cell culture wells and spread across the orifice epidermis upward, and clamped into place with a sterile top chamber. Pre-weighed aliquots of a target dose of 1.7 mg Retin-A prepared using an analytical balance were applied to the epidermal face, disbursed and messaged with the aid of the rubber tip of 1 ml BD tuberculin syringes and the start time recorded.
In series [2] the test system is EpiDerm-606X (epidermal model, enhanced barrier function). The following applies: human, 0.1 %.
Procedure: as §1, §2, §3
Series [3] is described as follows: Delivered dose and retinoid flux, EpiDerm-FT in Franz cells. The following applies: human, 1.7 mg Retin-A cream.
Procedure: as §1, §2, §3
For series [4], the system named is EpiDerm-FT (full thickness living skin model). Described as above. The following applies: EpiDerm-FT, collection period up to 5 hours.
Procedure: as §1, §2, §3
The nature of series [5]: Maximum (saturation) solubility of HPR in physiological aqueous systems with ethanol or human plasma proteins. Format: physicochemical. The method, then:
Although the compound is readily soluble in ethanol, this solvent solubility was not maintained when an ethanol solution of HPR was mixed into aqueous buffered systems, like physiological solutions, and in fact, even when the ethanol content of an aqueous solution of HPR was as high as 20%, the HPR solubility only reached approximately 1-2 μg/ml.
Purified human proteins were obtained from Sigma Chemical Company and dissolved in receiver medium, which was the same as the specialized medium from Mattek Inc used to maintain reconstituted skin systems or assay enhanced barrier permeability function. The individual proteins were dissolved to their respective plasma concentrations: high-density lipoprotein to 0.2 mg/mL, retinol binding protein to 0.05 mg/mL, serum albumin to 50 mg/mL (A6909, lot #055K8904), and acid α1-glycoprotein to 1 mg/mL (50646, lot #448248/1). HPR dissolved to 100 mg/mL in absolute ethanol supplemented with 4 mg/mL BHT was added to each protein solution to final theoretical concentration of 50 μg/mL and mixed by vortexing, the insoluble drug removed by centrifugation (12,000×g, 5 min, 23° C.), and the supernatant analyzed by HPLC to quantify HPR concentration.
A study of the HPR solubilizing properties of physiological concentrations of four human drug-binding plasma proteins that were expected to bind HPR under physiological conditions was conducted in receiver medium: high-density lipoprotein (HDL), retinol binding protein (RBP), albumin (ALB), and acid α-1-glycoprotein (AGP). Although certainly not the highest affinity binding, ALB solubilized more HPR per mL of receiver medium than any other plasma protein tested, driven primarily by its much higher physiological concentration than the other proteins. The solubilizing capacity of ALB was 7.5 μg HPR per ml of medium, which was 5-fold higher than that of 20 vol % ethanol. Using physiological concentrations of ALB in the 10 ml receiving medium chamber created a sink condition capable of binding 75 μg of HPR. Since the test surface area of the Franz cell was 1 cm^2 and the testing was conducted over 5 hours, this receiver medium was capable of supporting an average flux rate of 15 μg/cm^2/hour. It was concluded that this receiving medium should provide true sink conditions, considering the applied test dose of API from each formulation was just 1.7 μg/cm^2.

Series [6] is described as follows: Clinical trial and pharmacokinetic study of oral HPR (corn oil soft gel capsules) in adult solid tumor patients. Format: in vivo, human. The following applies: for Cmax: po. The procedure:
In an early clinical trial and pharmacokinetic study of oral HPR (corn oil, soft gel capsules) administered qdx7 to adult solid tumor patients at Wayne State University, dose escalation proceeded to 1600 mg/m^2 TID per day for seven days (˜90 capsules/day for one week).

Series [7] can be described thus: Bioavailability of oral HPR in corn oil versus IV F23 in Sprague-Dawley rats. The format is in vivo. The following applies: plasma, rat, 1200 mg/m^2 in corn oil by gavage vs 444 mg/m^2 IV F23, AUC0-30, read-out: bioavailability of orally dosed HPR. The procedure: The appropriate doses of injectable HPR administered IV to achieve desired blood or tissue levels can be determined by those skilled in the art, using data from related studies of oral and intravenous HPR formulations in healthy rats. For example, the present inventors administered a single, non-toxic bolus dose of 444 mg/m^2 of the F23 formulation (described herein) that was prepared at a strength of 50 mg/mL HPR, via femoral vein catheters to a group of seven dual catheterized Sprague-Dawley rats. A second group of rats received a single, non-toxic dose of 1200 mg/m^2 HPR in corn oil via oral gavage after an overnight fast which was maintained up until 2 hours after dosing. […]
Mean blood plasma concentration-time curves of measured HPR following oral and IV administration are shown in (FIG. 2). From such results, the bioavailability of the oral HPR can be calculated, as an accepted measure of the proportion of orally administered drug that entered systemic circulation. […] Bioavailability of oral HPR administered in corn oil was calculated by comparing the AUC values achieved by oral and intravenous dosing using the equation:
[formula] […] Assuming this to be similar to bioavailability of oral HPR in humans, which cannot be measured directly until human patients are actually dosed with intravenous HPR, it is possible to estimate suitable doses of HPR lipid nanoparticles for clinical use.

The test system of series [8] is isolated epidermis (cadaveric). As to the kind of experiment: Permeation into isolated cadaveric epidermis in Franz cells. The following applies: receiver medium PBS with ethanol to 20 vol %. The format is in vitro ADME. The method, then:
Epidermal drug levels achieved by 3 hours were stable to 24 hours. The C5 formulation reached 11. μg/mg after single application. The products were tested as 0.1% strength creams. Thus, by increasing strength of the product to 0.5% and applying twice daily, it is possible to achieve target content levels in the skin. Moreover, as discussed below, the C5 formulation may be advantageous in reaching this level in epidermis alone.

The nature of series [9]: Maximum (saturation) solubility of HPR in physiological aqueous systems with ethanol or human plasma proteins. Format: physicochemical. The following applies: 23 °C, kinetic from dmso stock, PBS pH 7.4.
For series [10] the following is noted: cited from earlier work.
The subject of series [11] is human tumor cell lines. The following applies: for 72 hours in vitro; cited from earlier work.
The conditions of series [12]: rat, 24 hours after dosing; cited from earlier work.
Series [13] concerns SCLC patients. The following applies: cited from earlier work.
In series [14] the test system is rodents. The following applies: in vivo; cited from earlier work.

Converted amounts (≈) assume the structure as drawn. “And” between values parts separate entries of the source, which are not always exact repeats. Equal values may be shown once. Read-outs that look alike come from different tables or passages of the source.

On to `CC1=C(/C=C/C(C)=C/C=C/C(C)=C/C(=O)O)C(C)(C)CCC1` [ATRA, all-trans-retinoic acid], for which the “detection in receiver medium” value in [1] is given as “No ATRA was detected”. The “retinoid in Cells (skin specimen)” value in series [1] (human, 0.2 h, 0.1 %) came to 0.031 µg; in series [1] (human, 2.1 h, 0.1 %), 0.042 µg; in [1] (human, 3 h, 0.1 %), 0.056 µg; in series [1] (human, 5 h, 0.1 %) it was 0.035 µg. Also, the “retinoid in receiver Medium” value in [1] (human, 0.2 h, 0.1 %) was 0 µg; in [1] (human, 2.1 h, 0.1 %), 0 µg; in series [1] (human, 3 h, 0.1 %) it was 0 µg; in series [1] (human, 5 h, 0.1 %), 0 µg; in series [2] (1 h) it was 0 µg; in series [2] (2 h) it was 0 µg. The “retinoid in receiver Medium” value in [2] (3 h) and in [2] (5 h) was 0 µg each time. Also, the “share of applied dose in skin specimen” value in series [1] (human, 3 h, 0.1 %) was 2.9%. Besides, the “retinoid in Cells (epidermis)” value stood at 0.209 µg in [2] (1 h), 0.106 µg in series [2] (2 h), 0.046 µg in series [2] (3 h) and 0.032 µg in series [2] (5 h). The same molecule came in with a half-life at 0.1 % in series [3] greater than 2 h.

With `CC1=C(/C=C/C(C)=C/C=C/C(C)=C\C(=O)O)C(C)(C)CCC1` [Formulation 13-cis-RA, 13-cis-retinoic acid], in [4], the “detection in receiver medium” value is “accumulated in the receiver medium”.

Take `CC1=C(/C=C/C(C)=C/C=C/C(C)=C/C(=O)Nc2ccc(O)cc2)C(C)(C)CCC1` [HPR, N-4-hydroxyphenylretinamide]: the solubility in series [5] (PBS with 20% ethanol, 23 °C, pH 7.4, aqueous with cosolvent or surfactant or cyclodextrin, kinetic from dmso stock, PBS pH 7.4, ethanol to 20% of volume, read-out: Maximum HPR Solubility) is 1 to 2 µg/mL (≈ 2.55 to 5.11 µM); in series [5] (phosphate-buffered saline with 20 vol % ethanol, pH 7.4, aqueous with cosolvent or surfactant or cyclodextrin, kinetic from dmso stock, phosphate-buffered saline with ethanol to 20 vol %, read-out: HPR solubility), roughly 1.3 µg/mL (≈ 3.32 µM); in [5] (physiological saline / aqueous systems, saline or isotonic, physiological saline / aqueous systems, read-out: HPR solubility), roughly 0.005 µg/mL (≈ 0.0128 µM); in [9] (human, PBS with albumin 50 g/L, pH 7.4, plasma or biological fluid, albumin 50 g/L), 7 to 8 µg/mL (≈ 17.9 to 20.4 µM); in series [9] (human, PBS with high density lipoprotein 0.2 g/L, pH 7.4, plasma or biological fluid, high density lipoprotein 0.2 g/L) it was 1.5 to 3 µg/mL (≈ 3.83 to 7.66 µM); in [9] (human, PBS with retinol binding protein 0.05 g/L, pH 7.4, plasma or biological fluid, retinol binding protein 0.05 g/L), less than 1 µg/mL. For the same molecule, the solubility is 1 to 2 µg/mL (≈ 2.55 to 5.11 µM) in series [9] (human, PBS with α1-acid-glycoprotein 1 g/L, pH 7.4, plasma or biological fluid, α1-acid-glycoprotein 1 g/L) and less than 1 µg/mL in series [9] (phosphate buffered saline, pH 7.4, aqueous buffer, additive none). In addition, in [5] (PBS with 20 vol % ethanol versus physiological saline), the “increase of HPR solubility by ethanol” value is 200 fold. Besides, in series [5] (receiver medium with albumin), the “solubilizing capacity of ALB relative to 20 vol % ethanol” value is 5 fold. In addition, the Cmax in series [6] (human, plasma, after the first dose) was 1000 ng/mL to 1300 ng/mL and 2.6 µM to 3.3 µM; in [6] (human, plasma, after the last dose), 2800 ng/mL to 4600 ng/mL and 7 µM to 12 µM. In series [6] (human, plasma, oral HPR, patients, read-out: terminal phase half-life), the half-life lay in the range of 8 to 14 h. Further, the “ceiling of plasma HPR level” value in series [6] (oral, regardless of schedule or dose above 1200 mg/m^2 BID) was no more than 5 µg/mL. Moreover, the bioavailability in [7] was 8%. The “HPR in receiver medium” value in series [8] is listed as “not detected”. In addition, the “plasma level of HPR” value in series [10] (oral 25 mg/kg/day for 10 days, 3 hrs after last dose) is on record as 80 ng/mL; in series [10] (oral 125 mg/kg/day for 10 days, 3 hrs after last dose) it was 260 ng/mL; in series [10] (oral 800 mg/kg/day) it was 315 ng/mL. Further, the “minimum HPR exposure level required to inhibit human tumor cell lines by at least 50-90%” value in series [11] was 10 µM. For the same molecule, the “accumulation in pancreas over plasma” value in series [12] is reported as 15-20 fold. For the same molecule, the “maximum concentration of HPR in blood-plasma (±SD)” value in series [13] (14 SCLC patients, 3-4 hours after 14th oral dose (twice/day, 7 days), in µM) is on record as 7.7±4.4 04. Further, the maximum plasma concentration entry in series [13] (SCLC patients, after final of 14 oral doses of 900 mg/m^2) is on record as “approximately 7.7 μM”. The “stable disease, share of advanced SCLC patients” value in [13] (oral HPR) is 30%. Besides, the “maximum tolerated dose (MTD)” value in series [14] is reported as 651 mg/m^2. In addition, in series [14], the “maximum tolerated dose for parenteral HPR” value is on record as roughly 650 mg/m^2 per day. In addition, the “well tolerated daily dose” value in series [14] is recorded as roughly 600 mg/m^2.

As for `COc1ccc(NC(=O)\C=C(C)/C=C/C=C(C)\C=C\C2=C(C)CCCC2(C)C)cc1` [MPR], the “plasma level of MPR metabolite” value in series [10] (oral HPR 125 mg/kg/day) and in series [10] (oral HPR 800 mg/kg/day) was 60 ng/mL in each case.
